Laboratory results as given in patent US4673684A, “Amide derivatives and 5-lipoxygenase inhibitors containing the same as an active ingredient” (Terumo Corporation, priority 1984, dated 1987).

Target: T1, 5-lipoxygenase (Mus musculus, UniProt P48999)
T1 construct: The supernatant is used as a 5-lipogenase enzyme solution; endogenous in cells
T1 sequence (P48999 1-674): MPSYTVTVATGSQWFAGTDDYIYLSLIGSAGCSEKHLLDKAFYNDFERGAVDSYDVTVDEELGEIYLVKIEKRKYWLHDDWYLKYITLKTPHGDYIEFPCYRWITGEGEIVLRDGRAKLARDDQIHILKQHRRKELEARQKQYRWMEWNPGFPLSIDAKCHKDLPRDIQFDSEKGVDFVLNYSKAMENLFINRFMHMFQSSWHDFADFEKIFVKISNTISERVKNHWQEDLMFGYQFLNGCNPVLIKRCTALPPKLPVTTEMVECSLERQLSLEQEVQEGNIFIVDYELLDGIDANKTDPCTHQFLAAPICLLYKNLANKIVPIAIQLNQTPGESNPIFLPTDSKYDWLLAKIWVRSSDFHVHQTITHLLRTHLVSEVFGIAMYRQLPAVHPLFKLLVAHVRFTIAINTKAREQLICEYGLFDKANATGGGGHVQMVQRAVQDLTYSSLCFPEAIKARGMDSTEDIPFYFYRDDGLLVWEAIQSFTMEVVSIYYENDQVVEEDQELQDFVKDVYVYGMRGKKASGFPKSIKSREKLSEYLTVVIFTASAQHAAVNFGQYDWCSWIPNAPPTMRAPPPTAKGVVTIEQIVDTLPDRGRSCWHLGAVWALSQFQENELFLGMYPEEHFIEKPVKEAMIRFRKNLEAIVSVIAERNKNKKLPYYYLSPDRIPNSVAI
Experiment: 5-Lipoxygenase-inhibiting Activity (decrease in 5-HETE and LTB4 formed from radiolabelled arachidonic acid, enzyme solution from mouse mastcytoma cells P-815)
Assay type: biochemical
Conditions: not given
Method: Mouse mastcytoma cells P-815 are diluted in a culture solution, containing 90% Eagle Basic Medium (manufactured by Gibco Laboratories) to 5×10^4 cells/ml. The diluted solution is cultivated with shaking in air at 37° C. for 48 hours. Then, the culture solution is cooled with ice and centrifuged to collect the cells. The cells are suspended in a phosphate buffer solution at pH 7.4 at a concentration of 2×10^7 cells/ml. The suspension is treated in a ultrasonic cell disintegrater and then centrifuged at 10,000 r.p.m. for 10 min. The supernatant is used as a 5-lipogenase enzyme solution. In test tubes are placed 20 μl of radiolabelled arachidonic acid ([…]), indomethacin (2×10^-8 mol) and an amide derivative to be tested, respectively. To each of the test tubes are added 0.45 ml of a phosphate buffer solution, 0.45 ml of the above-prepared suspension, 0.45 ml of the above-prepared enzyme solution and 0.1 ml of 8 mM CaCl2 (calcium chloride). The mixture is reacted at 37° C. for 5 min. After cooled with ice, 60 μl of 1N-HCl (hydrochloric acid is added to the reaction mixture, which is then extracted with 8 ml of ethyl acetate. The extract is concentrated, and the concentrate is developed by spotting on a silica gel thin layer plate (Merck 60F 254). Measurement of the inhibitory activity is made by collecting fractions corresponding to lipoxygenase products 5-HETE (5(s)-hydroxy-6,8,11,14-eicosatetraenic acid) and LTB4 (leucotriene B4) and determining the radioactivity by a liquid scintillation counter. The lipoxygenase inhibiting activity is determined by decrease in the amount of the above-mentioned 5-lipoxygenaseproducts. […] 50% inhibitory concentration or 30% inhibitory concentration as indicated in the table means the concentration of an amide derivative required for reducing the amount of the above-mentioned 5-lipoxygenase products (5-HETE and LTB4) to 50% or 30% of the amount when the amount of 5-HETE and LTB4 produced in the absenced of the amide derivative is 100%.

Compound | IC50 [nM]
COc1ccc(/C=C/C(=O)N2CCN(CCOC(c3ccccc3)c3ccccc3)CC2)cc1OC [Example 76, N-[3-(3,4-dimethoxyphenyl) -2-propenoyl]-N'-(2-benzhydroxyethyl)piperazine] | 20000

Same assay, conditions: 5-HETE and LTB4 formation; mouse mastcytoma P-815 enzyme solution; 37° C., 5 min; pH 7.4; with indomethacin; read-out: 50% Inhibitory concentration IC50

IC50 [nM] | Compound
10000 | COc1cc(/C=C/C(=O)NCCN2CCN(C(c3ccccc3)c3ccccc3)CC2)cc(OC)c1OC [Example 52, N-benzhydryl-N'-[3-(3',4',5'-trimethoxy)phenyl-2-propenoyl]aminoethylpiperazine]
20 | COc1cc(/C=C/C=C/C(=O)NCCCCN2CCN(C(c3ccccc3)c3ccc(Cl)cc3)CC2)cc(OC)c1O (centres unmarked) [Example 96, N-p-chlorobenzhydryl-N'-5-(3,5-dimethoxy-4-hydroxy)phenyl-2,4-pentadienlylaminobutylpiperazine]
30 | COc1cc(/C=C/C=C/C(=O)N2CCN(CCCOC(c3ccccc3)c3ccccc3)CC2)cc(OC)c1O [Example 99]
2000 | O=C(/C=C/C=C/c1ccc2c(c1)OCO2)NCCCN1CCN(C(c2ccccc2)c2ccccc2)CC1 [Example 62, N-[3-[5-(3,4,-methylenedioxyphenyl)-2,4-pentadienoyl]aminopropyl]-N'-benzhydrylpipeerazine]
4000 | COc1cc(/C=C/C=C/C(=O)NCCn2cnc3c2c(=O)n(C)c(=O)n3C)ccc1O [Example 88]
1000 | CC(=O)OCc1cnc(C)c(O)c1CNC(=O)/C=C/c1ccc(O)c(O)c1 [Example 5, N-caffeoyl-o-acetylpyridoxane]
30000 | COc1cc(/C=C/C(=O)N2CCN(CCCn3cnc4c3c(=O)n(C)c(=O)n4C)CC2)cc(OC)c1OC [Example 127, 7-[3-[4-[3-(3,4,5-trimethoxyphenyl)-2-propenoyl]piperazi-1-nyl]-1-propyl]theopylline]
200 | COc1cc(/C=C/C=C/C(=O)NCCCN2CCN(C(c3ccccc3)c3ccccc3)CC2)ccc1O [Example 38, N-[3-[5-(3-methoxy-4-hydroxyphenyl)-2,4-pentadienoyl]aminopropyl]-N'-benzhydrylpiperazine]
7 | COc1cc(/C=C/C=C/C(=O)NCCCN2CCC(OC(c3ccccc3)c3ccccc3)CC2)ccc1O [Example 131]
200 | COc1cc(/C=C/C=C/C(=O)NCc2c(COC(=O)c3ccc(C)cc3)cnc(C)c2O)ccc1O [Example 41, 4-[5-(3-methoxy-4-hydroxyphenyl)-2,4-pentadienoyl]-aminomethyl-3-hydroxy-2-methyl-5-toluoxymethylpyridine]
30 | O=C(/C=C/C=C/c1ccc(O)c(O)c1)N1CCN(CCCOC(c2ccccc2)c2ccccc2)CC1 [Example 85, N-[5,[3,4-hydroxyphenyl]-2,4-pentadienoyl]-N'-(3-benzhydroxypropyl)piperazine]
20000 | COc1cc(/C=C/C=C/C(=O)N2CCN(CCCn3cnc4c3c(=O)n(C)c(=O)n4C)CC2)cc(OC)c1OC [Example 134, 7-[3-[4-[5-(3,4,5-trimethoxyphenyl)-2,4-pentadienoyl]piperazi-1-nyl]-1-propyl]theophylline]
2000 | COc1cc(/C=C/C(=O)NCCCCNC(=O)/C=C/c2ccc(O)c(OC)c2)ccc1O [Example 4, N,N'-bis-{3-(3-methoxy-4-hydroxyphenyl)-2-propenoyl}-1,4-diaminobutane]
60 | O=C(/C=C/C=C/c1ccc(O)c(O)c1)NCCCN1CCN(C(c2ccccc2)c2ccc(Cl)cc2)CC1 (centres unmarked) [Example 45, N-(p-chlorobenzhydryl)-N'-[{5-(3,4-dihydroxyphenyl)-2,4-pentadienoyl}-aminopropyl]piperazine]
10 | COc1cc(/C=C/C(=O)NCCCN2CCC(OC(c3ccccc3)c3ccccc3)CC2)cc(OC)c1O [Example 126, 1-[3-{3-(3,5-dimethoxy-4-hydroxyphenyl)-2-propenoyl}aminopropyl]-4-benzhydroxypiperidine]
10 | CC(OCCCN1CCN(C(=O)/C=C/c2ccc(O)c(O)c2)CC1)(c1ccccc1)c1ccc(Cl)cc1 (centres unmarked) [Example 101, N-[3-(3,4-dihydroxyphenyl)-2-propenoyl]-N'-[3-[1-phenyl-1-(p-chlorophenyl)ethoxy]propyl]piperazine]

IC50 [nM] | Compound
1000 | Cn1c(=O)c2c(ncn2CCCN2CCN(C(=O)/C=C/C=C/c3ccc(O)c(O)c3)CC2)n(C)c1=O [Example 128, 7-[3-[4-[5-(-dihydroxyphenyl)-2,4-pentadienoyl]piperazi-1-nyl]-1-propyl]theophylline]
100000 | COc1cc(/C=C/C=C/C(=O)NCc2c(CO)cnc(C)c2O)cc(OC)c1OC [Example 60, 4-[5-(3,4,5-trimethoxyphenyl)-2,4-pentadienoyl]aminomethyl-3-hydroxy-5-hydroxymethyl-2-methylpyridine]
20 | O=C(/C=C/C=C/c1ccc(O)c(O)c1)NCCCCN1CCN(C(c2ccccc2)c2ccc(Cl)cc2)CC1 (centres unmarked) [Example 82, N-(p-chlorobenzhydryl)-N'-[4-[5-(3,4-dihydreoxyphenyl) -2,4-pentadienoyl]aminobutyl]piperazine]
100 | COc1cc(/C=C/C=C/C(=O)NCCCN2CCN(C(c3ccccc3)c3ccc(Cl)cc3)CC2)ccc1O (centres unmarked) [Example 39, N-(p-chlorobenzhydryl)-N'-[3-{5-(3-methoxy-4-hydroxyphenyl)-2,4-pentadienoyl)aminopropyl]piperazine]
10000 | COc1cc(/C=C/C(=O)N2CCN(CCCn3cnc4c3c(=O)n(C)c(=O)n4C)CC2)ccc1O [Example 123]
20 | COc1cc(/C=C/C=C/C(=O)NCCN2CCN(C(c3ccccc3)c3ccccc3)CC2)cc(OC)c1O [Example 53, N-[2-[5-(3,5-dimethoxy-4-hydroxyphenyl)-2,4-pentadienoyl]aminoethyl]-N'-benzhydrylpiperazine]
40 | COc1cc(/C=C/C=C/C(=O)NCCCCN2CCN(C(c3ccccc3)c3ccc(Cl)cc3)CC2)ccc1O (centres unmarked) [Example 86]
900 | COc1cc(/C=C/C(=O)NCCOC(c2ccccc2)c2ccccc2)ccc1O [Example 72, 2-[3-(3-methoxy-4-hydroxy)phenyl-2-propenoyl]aminoethyl benzhydryl ether]
200 | CC/C=C\C/C=C\C/C=C\CCCCCCCC(=O)NCCCCNC(=O)/C=C/C=C/c1ccc(O)c(OC)c1 [Example 19, N-{5-(3-methoxy-4-hydroxyphenyl)-2,4-pentadienoyl}-N'-9,12,15-octadecatrienoyl-1,4-diaminobutane]
20 | COc1cc(/C=C/C=C/C(=O)NCCCCN2CCC(OC(c3ccccc3)c3ccccc3)CC2)cc(OC)c1O [Example 133, 1-[4-[5-(3,5-dimethoxy-4-hydroxyphenol)-2,4-pentadienoyl]aminobutyl]-4-benzydroxypiperidine]
8000 | COc1ccc(/C=C/C(=O)NCCCCN2CCN(C(c3ccccc3)c3ccccc3)CC2)cc1OC [Example 74, N-[4-[3-(3,4-dimethoxyphenyl)-2-propenoyl]aminobutyl]-N'-benzhydrylpiperazine]
30 | O=C(/C=C/C=C/c1ccc(O)c(O)c1)NCCCCNC(=O)/C=C/C=C/c1ccc(O)c(O)c1 [Example 21, N,N'-di[5-(3,4-dihydroxyphenyl)-2,4-pentadienoyl]-1,4-diaminobutane]
40 | O=C(/C=C/c1ccc(O)c(O)c1)Nc1ccccc1O [Example 11, N-{3-(3,4-dihydroxyphenyl)-2-propenoyl}-o-aminophenol]
90 | COc1cc(/C=C/C=C/C(=O)NCCCOC(c2ccccc2)c2ccccc2)ccc1O [Example 92, 3-[5-[3-methoxy-4-hydroxyphenyl)-2,4-pentadienoyl]aminopropyl benzhydryl ether]
4000 | COc1ccc(/C=C/C=C/C(=O)NCCCN2CCN(C(c3ccccc3)c3ccccc3)CC2)cc1OC [Example 47, N-[3-[5-(3,4-dimethoxyphenyl)-2,4-pentadienoyl]-aminopropyl]-N'-benzhydrylpiperazine]
